The subject of data set [1] is C57BL/6 mice subjected to liver IR. The data set can be described thus: Murine model of liver ischemia reperfusion (hepatic IR): plasma ALT and creatinine. The data set is classed as in vivo, mouse. The settings on record: for Effect of pre-treatment on Sg1P-mediated renal and hepatic protection after liver IR: given prior to Sg1P treatment, serum creatinine and ALT; for Serum creatinine (mean) / Serum ALT (mean): C57BL/6 mice, 60 min liver ischemia, 24 h reperfusion; for Effect of pretreatment alone on kidney injury resulting from liver IR / Effect of pretreatment alone on liver injury resulting from liver IR: antagonist alone, no Sg1P.

Data set [2] shares this test system. Briefly: Kidney H&E histology after liver IR. The data set is classed as in vivo, mouse. The settings on record: pre-treatment prior to Sg1P. An excerpt:
Liver IR-induced AKI in mice shared similar histological changes observed in human AKI associated with liver failure, as observed in H&E slides of kidney sections taken from the mice (see FIG. 3). Multifocal acute tubular injury including individual cell necrosis involving the juxtamedullary proximal tubules of the S3 segment was observed. […] Endothelial apoptosis of peritubular capillaries was also visible in H&E sections as linear arrays of apoptotic bodies corresponding to the interstitial capillary lining endothelium. […] The number of glomeruli with detectable juxtaglomerular apparatus and the number of cells per juxtaglomerular apparatus were both increased after liver IR, indicating hyperplasia of the juxtaglomerular apparatus. […] Liver IR produced large necrotic areas of liver tissue. The average percentage of necrotic areas in liver samples taken from liver IR mice were 92%±2% (n=6), while no necrosis was found in sham-operated mice. Livers were also analyzed for the degree of hepatocellular damage.

The test system is the same in data set [3]. The data set can be described thus: Liver H&E histology after liver IR (percent necrosis, Suzuki score). The class given is in vivo, mouse. The settings on record: pre-treatment prior to Sg1P treatment. On the procedure:
Mice were anesthetized with intraperitoneal pentobarbital (50 mg/kg or to effect). Mice were placed under a heating lamp and on a 37° C. heating pad. After a midline laparotomy and intraperitoneal application of 20 U heparin, left lateral and median lobes of the liver were subjected to ischemia with a microaneurysm clip occluding the hepatic triad above the bifurcation. This method of partial hepatic ischemia results in a segmental (˜70%) hepatic ischemia but spares the right lobe of the liver and prevents mesenteric venous congestion by allowing portal decompression throughout the right and caudate lobes of the liver. The liver was then repositioned in the peritoneal cavity in its original location for 60 minutes. The liver was kept moist with gauze soaked in 0.9% normal saline. The body temperature was monitored by an infrared temperature sensor (Linear Laboratories, Fremont, Calif.) every 10 min. and maintained at 37° C. using a heating lamp and a heating pad. After 60 minutes, the liver was reperfused and the wound closed. Sham-operated mice were subjected to laparotomy and identical liver manipulations without vascular occlusion. Two, 4 and 24 hr after reperfusion, plasma was collected for the measurement of alanine aminotransferase (ALT), a common indicator of liver damage, as well as creatinine (Cr) a common indicator of kidney damage. The liver tissue subjected to IR was collected to measure percent liver necrosis (2, 4 and 24 hr after IR), neutrophil infiltration (with immunohistochemistry, 4 and 24 hr after IR), apoptosis (with terminal deoxynucleotidyl transferase-mediated dUTP nick end labeling staining, caspase 3 immunoblotting and DNA laddering, 24 hr after IR), and inflammation by RT-PCR for pro-inflammatory mRNAs (4 hr after IR).
Livers were also analyzed for the degree of hepatocellular damage using the Suzuki's criteria (Suzuki et al., Transplantation 1993, Vol. 55, pp. 1265-1272). To obtain a Suzuki score, 3 liver injury indices are graded: sinusoidal congestion (0-4), hepatocyte necrosis (0-4), and ballooning degeneration (0-4) are graded for a total score of 0-12. No necrosis, congestion, or centrilobular ballooning is given a score of 0 whereas severe congestion/ballooning and >60% lobular necrosis is given a value of 4.

For data set [4], the system named is SK2 KO mice subjected to liver IR. Briefly: Liver IR in SK2 KO mice: plasma ALT and creatinine. The class given is in vivo, mouse. The settings on record: SK2KO, hepatic IR 24 h. Here is the method:
(§1) The effects of administering Sg1P (0.1 mg/kg i.v. and 0.2 mg/kg s.c.) on liver and renal injury were also determined in the KO mice and are also shown in Tables 9 and 10 below.

For data set [5] the following is noted: mouse, in vivo.
Data set [6] relates to SK1 KO mice subjected to liver IR. The data set can be described thus: Liver IR in SK1 KO mice: plasma ALT and creatinine. The class given is in vivo, mouse. The settings on record: SK1KO, hepatic IR 24 h. On the procedure: as §1
In data set [7] the test system is SK-deficient mice subjected to liver IR. The data set can be described thus: Liver IR in SK-deficient mice (subtype not stated). The data set is classed as in vivo, mouse. The settings on record: liver IR (data not shown). On the procedure: as §1
In data set [8] the test system is S1P1 and S1P3 receptors. The settings on record: cited from earlier work.
Where [9] appears, read: 0.1 mg/kg i.v. and 0.2 mg/kg s.c.

Several values for one entry are separate records, joined by “and”; a condition that tells them apart may be missing. Identical values can stand only once.

For `CCCCCCCCCCCC1N[C@H](C(=O)O)CS1` (some centres unmarked) [BML-241], the “Effect of pre-treatment on Sg1P-mediated renal and hepatic protection after liver IR” value (“Effect of pre-treatment … after liver IR” below) in data set [1] is “did not block”.

For the compound `CCCCCCCCc1ccc(CCC(N)(CO)CO)cc1` [FTY720], the “Serum creatinine (mean)” value in data set [1] was found to be 0.65 ± 0.06 mg/dL. For the same compound, the “serum ALT” value in data set [1] (liver IR, 1 mg/kg i.p. 30 min. prior to liver ischemia and 5 min prior to reperfusion, in U/L) was 6435±944.

Take `Cc1nn(C)c2nc(NNC(=O)Nc3cc(Cl)nc(Cl)c3)cc(C(C)C)c12` [JTE-013]: the “Effect of pre-treatment … after liver IR” value in data set [1] is on record as “did not block”.

Regarding `CC(=N)NCCC[C@H](N)C(=O)O` [L-NIO], the “Effect of pre-treatment … after liver IR” value in data set [1] is reported as “had no effects”.

Turning to `COc1cccc(-c2cc(=O)c3ccccc3o2)c1N` [PD98059], in data set [2], the “Effect of pre-treatment on protective effects of Sg1P on renal histology” value (from here on “Effect of pre-treatment … on renal histology”) is on record as “reduced the protective effects”. Further, the “Necrotic areas in the liver after IR” value in data set [3] is reported as “increased significantly”. Moreover, the “Effect of pre-treatment … after liver IR” value in data set [1] was “prevented”.

Consider `CCCCCCCCCCCCC/C=C/[C@@H](O)[C@@H](N)COP(=O)(O)O` [S1P, sphingosine-1-phosphate], for which the results for the “Creatinine (mean)” value in data set [4] and in data set [6] were 0.880 mg/dL and 1.035 mg/dL, respectively. Also, the entries for the “ALT (mean)” value in data set [4] (setting [9]) and in data set [6] (setting [9]) were 13165.08 U/L and 17416.67 U/L, respectively. In data set [5], the “Rescue of serum Sg1P levels” value was “completely rescued”. Also, in data set [1], the “Serum ALT (mean)” value is 9178±1822 U/L and 9178 U/L. For the same compound, the “Serum creatinine (mean)” value in data set [1] is 0.72 ± 0.13 mg/dL and 0.72 mg/dL.

Regarding `FC(F)(F)c1cccc(-c2noc(-c3cc(-c4ccccc4)c(C(F)(F)F)s3)n2)c1` [SEW2871], in data set [1], the “Serum ALT (mean)” value amounted to 6502±552 U/L and the “Serum creatinine (mean)” value stood at 0.63 ± 0.08 mg/dL.

With `CCCCCCCCCCCCCCC[C@@H](O)[C@@H](N)CO` [Sphinganine, sphinganine], in data set [7], the Kidney protection entry is recorded as “failed to provide kidney protection” and the “Protective effect on the liver” value was “failed to provide protective effect on the liver”. Also, in data set [1], the “Serum ALT (mean)” value turned out to be 7170 U/L and the “Serum creatinine (mean)” value worked out at 0.58 mg/dL. In data set [1] (listed as sphinganine), the “Serum ALT (mean)” value is recorded as 7170±1282 U/L and the “Serum creatinine (mean)” value was 0.58 ± 0.05 mg/dL.

In the case of `CCCCCCCCCCCCC/C=C/[C@@H](O)[C@@H](N)CO` [Sphingosine, sphingosine], in data set [1], the “Serum ALT (mean)” value is given as 9269 U/L and the “Serum creatinine (mean)” value is 0.76 mg/dL. Further, in data set [1] (listed as sphingosine), the “Serum ALT (mean)” value was determined as 9269±583 U/L and the “Serum creatinine (mean)” value worked out at 0.76 ± 0.06 mg/dL.

Turning to `CCCCCCCCc1cccc(NC(=O)[C@H](N)COP(=O)(O)O)c1` [VPC], the “Selectivity for S1P1 (over S1P3)” value in data set [8] is recorded as 50 fold. For the same compound, in data set [1], the “Serum ALT (mean)” value was 18253 U/L, the “Serum creatinine (mean)” value is given as 1.61 mg/dL, the “Effect of pretreatment alone on kidney injury resulting from liver IR” value is given as “exacerbated kidney injury” and the “Effect of pretreatment alone on liver injury resulting from liver IR” value is listed as “exacerbated liver injury”. Also, in data set [1] (listed as VPC 23019), the “Serum ALT (mean)” value was 18253±1709 U/L.

Turning to `CCCCCCc1cccc(NC(=O)[C@H](N)CCP(=O)(O)O)c1` [W146], in data set [2], the “Effect of pre-treatment … on renal histology” value is “reduced the protective effects”. Moreover, the “Necrotic areas in the liver after IR” value in data set [3] is “increased significantly”. Further, the “Inhibition of Sg1P-mediated renal and hepatic protection” value in data set [1] (0.1 mg/kg (i.p.) 10 minutes prior to liver ischemia) is listed as “completely inhibit”. In data set [1], the “Serum ALT (mean)” value is 24452±1760 U/L and 24451 U/L; the “Serum creatinine (mean)” value was 1.6 ± 0.2 mg/dL and 1.55 mg/dL; the “Effect of pretreatment alone on kidney injury resulting from liver IR” value was “exacerbated kidney injury”; the “Effect of pretreatment alone on liver injury resulting from liver IR” value is listed as “exacerbated liver injury”. Also, in data set [1] (pre-treatment 0.01-0.2 mg/kg), the “Inhibition of Sg1P's protective effects against liver and kidney injury” value is given as “dose-dependent”.

With pertussis toxin, the “Effect of pre-treatment … on renal histology” value in data set [2] was “reduced the protective effects”. Besides, in data set [3], the “Necrotic areas in the liver after IR” value is listed as “increased significantly”. Also, the “Effect of pre-treatment … after liver IR” value in data set [1] is “prevented”.

The values above are taken from patent US20110294874A1, “DIAGNOSIS AND THERAPY OF ORGAN DYSFUNCTION USING SPHINGANINE-1-PHOSPHATE” (The Trustees of Columbia University in the City of New York, priority 2008, published 2011).
